By melting point is commonly meant the temperature of the solid-liquid transition.

For `CC1(C)SC(=S)N(Cc2ccco2)C(=O)C1NC(=O)c1ccccc1` (stereo not drawn), the melting point is 168 to 169 °C.

Molecule `N#Cc1ccc(C(F)(F)F)cc1Sc1ccccc1N` displayed a melting point of 102 to 104 °C.

The molecule `Nc1nc(Nc2ccc(N3CCOCC3)cc2)sc1C(=O)c1c(Cl)cccc1Cl` displayed a melting point of 245 to 247 °C.

Molecule `COCC(=O)C1CCC2C3CCC4CC(O)CCC4(C)C3CCC12C` (stereo not drawn) registered a melting point of 163 to 164 °C.

Turning to `NC(=O)c1ccc(F)c2c1CC(N(CCCc1c[nH]c3ccc(Cl)cc13)C1CCC1)CO2` (stereo not drawn), the melting point lay within 152 to 160 °C.

Regarding `O=Cc1ccc(-c2ccc(-c3ccc(C=O)o3)cn2)cc1`, the melting point fell in the range of 204 to 206 °C.

Molecule `CCCOc1ccc(-c2scc(-c3ccccc3Cl)c2CC(=O)N=C(N)N)cc1` came in with a melting point of 98 to 99 °C.

`Cc1coc(C)c1N(C)c1cc(Br)cc2c1nc(C)n2C` returned a melting point of 207 to 208 °C.

For `CCOC(=O)N1CCN(c2ccncc2N)CC1`, the melting point is 141 to 142 °C.

Molecule `COC(=O)CCc1cc2cc(Cl)ccc2n1S(=O)(=O)c1cccc2ccccc12` came in with a melting point of 88 to 93 °C.

In turn, `COC(=O)Cc1cc(-c2ccccc2)ccc1OCc1ccc(OCc2nc(-c3ccccc3)oc2C)cc1` gave a melting point of 111 to 112 °C.

`CC(C)(C)OC(=O)N[C@H](Cc1ccc(Cl)c(Cl)c1)C(=O)N1CCC[C@H]1C(=O)NC1CCc2n[nH]cc2C1` (stereo partly drawn) displayed a melting point of 116 to 119 °C.

Molecule `CC(=O)OC(C)N1C(=O)/C(=C\c2[nH]c(C)cc2C)c2ccccc21` (stereo not drawn) displayed a melting point of 107 to 110 °C.

As to `N#Cc1cc2nc(O)c(O)nc2c2ccccc12`, the melting point was over 300 °C.

With `N#CC1=CCOc2ccc(F)cc21`, the melting point lay in the range of 114 to 115 °C.

With `CCC(CC)(CC)C(=O)O[C@H]1CCC=C2C=C[C@H](C)[C@H](CC[C@@H]3C[C@@H](O)CC(=O)O3)[C@H]21`, the melting point lay in the range of 65 to 68 °C.

For the molecule `COC(=O)c1cc(C(=O)N[C@@H](Cc2ccccc2)[C@H](O)CNC2(c3cccc(C(F)(F)F)c3)CC2)n2c1CN(C(=O)OC(C)(C)C)CC2`, the melting point was found to be 136 °C.

The molecule `CCOC(=O)c1nn(Cc2ccc(Cl)cc2C)c2ccccc12` yielded a melting point of 120 to 122 °C.

`CN1C(O)=C(C(=O)Nc2ccc(Cl)cc2)c2cscc2S1(=O)=O` displayed a melting point of 154 to 156 °C.

For `CC(C(=O)O)c1ccc2cc(OCc3ccc4ccc(Cl)cc4n3)ccc2c1` (stereo not drawn), the melting point lay within 188 to 190 °C.

Turning to `COc1cccc2c(=O)c(O)coc12`, the melting point is 180 to 183 °C.

`COCOCc1c([N+](=O)[O-])cc(OC)c(OC)c1OC`: the melting point lay in the range of 39 to 40 °C.

`NC(=O)N(O)Cc1sccc1Br` yielded a melting point of 138 to 140 °C.

Consider `COc1ccc(S(=O)(=O)N2C(=O)C(N)(c3ccccc3Cl)c3cc(Cl)ccc32)c(N)c1` (stereo not drawn), for which the melting point lay in the range of 160 to 166 °C.

Regarding `Cc1oc(-c2ccco2)nc1COc1ccc(COc2ncccc2C#N)cc1`, the melting point fell in the range of 135 to 136 °C.

The molecule `CC(Oc1ncn(-c2cccc(F)c2)n1)C(=O)O` (stereo not drawn) gave a melting point of 177 to 179 °C.

As for `Cc1cc(C)cc(C(=O)c2c(-c3ccc(OCC(O)CNC(C)C)cc3)oc3ccccc23)c1` (stereo not drawn), the melting point fell in the range of 154 to 157 °C.

On to `C=C(Br)c1cc(O)cc2nc(-c3ccc(O)cc3)oc12`, for which the melting point lay within 228 to 230 °C.

With `O=C(O)CCCc1ccc(NS(=O)(=O)c2ccc(Br)cc2)cn1`, the melting point lay in the range of 188 to 190 °C.

The molecule `O=C(O)c1cn(CC(F)(F)F)c2c(F)c(F)c(F)cc2c1=O` yielded a melting point of 205 to 207 °C.

Turning to `CC(=O)OC1CSC(Oc2cncc(-c3cnoc3C)c2)C(OC(C)=O)C1OC(C)=O` (stereo not drawn), the melting point is 127 °C.

`NC(=O)N(O)CC=Cc1ccc(Oc2ccccc2)o1` registered a melting point of 126 to 128 °C.

Molecule `CCOC(=O)NN(C(=O)NC)S(=O)(=O)c1ccccc1` returned a melting point of 138 to 142 °C.

Molecule `CCOC(=O)c1ccc(-n2nc(C(F)(F)F)cc2-c2ccc(S(C)(=O)=O)cc2)cc1` registered a melting point of 159 to 161 °C.

For `NC(=O)C(=O)c1cccc(Cl)c1Cl`, the melting point fell in the range of 213 to 214 °C.

Consider `O=C(O)Cc1ccc(OCCCN2CCC(c3cn(CC4CC4)c4ccccc34)CC2)cc1`, for which the melting point is 83 to 85 °C.

As to `CN1CCC(c2cc3c(N)cccc3c(=O)[nH]2)CC1`, the melting point was in the range of 222 to 224 °C.

In turn, `COc1ccc(-c2ccc(Cl)nn2)c(O)c1` registered a melting point of 156 to 157 °C.

In turn, `Cc1cn(S(C)(=O)=O)c2c1C(=O)CC(c1ccccc1Cl)C2` (stereo not drawn) displayed a melting point of 167 to 168 °C.

Molecule `Nc1cc(C(=O)O)cc(OCc2ccccc2)c1-c1ccccc1` returned a melting point of 161 to 162 °C.

`O=C(Oc1ccc(Cl)c(OCC2CC2(Cl)Cl)c1)N1CCSC1` (stereo not drawn) came in with a melting point of 74 to 79.5 °C.

`CCOc1nc2c(N)nc(OCCc3ccccc3)nc2n1CC` registered a melting point of 161 to 164 °C.

Take `Cc1nc(C)c(-c2ccnc(Nc3cccnc3)n2)s1`: the melting point lay in the range of 159 to 162 °C.

Take `CCOC(=O)COc1c(Cl)c(O)c2c(c1Cl)OC1(CCCCC1)CC2=O`: the melting point lay within 134 to 135 °C.

Regarding `COc1ccc2[nH]c3c(c2c1)CCN(C(C)=O)C3C` (stereo not drawn), the melting point was 198 to 200 °C.

Turning to `CCOC(=O)c1cc(=O)c2c(OCC(O)COc3cccc(O)c3C(=O)C=CN(C)C)cccc2o1` (stereo not drawn), the melting point is 159 to 165 °C.

The molecule `COc1ccc2[nH]c3c(c2c1)CC(N(C)C)CC3` (stereo not drawn) came in with a melting point of 126 to 128 °C.

On to `Cc1ccc(S(=O)(=O)N2CCCC(CSc3ccccc3)C2)cc1` (stereo not drawn), for which the melting point was determined as 66.7 °C.

The molecule `CCCCCCCOc1ccc(C(=O)Cl)cc1OCCCCCCC` came in with a melting point of 57 to 58 °C.

The molecule `COC(=O)N1CCCCc2cc(C3=NNC(=O)SC3C)ccc21` (stereo not drawn) displayed a melting point of 182 °C.

`Cn1cc(C=CC(=O)NCN2CCCC2)c([N+](=O)[O-])n1` registered a melting point of 180 to 183 °C.

With `CSCCn1nc(O)c2[nH]c3cc(Cl)ccc3c(=O)c2c1=O`, the melting point was in the range of 275 to 277 °C.

`N#Cc1cn(-c2c(Cl)cc(C(F)(F)F)cc2Cl)nc1[N+](=O)[O-]` yielded a melting point of 163 to 165 °C.

For `C=Cc1cc(NC(=O)N2CCN(c3cc(F)cc(F)c3)CC2)c(OC)nc1C`, the melting point lay within 160 to 161 °C.

On to `CN1C(=S)N(c2ccc(C#N)c(C(F)(F)F)c2)C(=O)C1(C)C`, for which the melting point was determined as 171 °C.

Molecule `CCOC(=O)C1=C(NC(=O)Nc2cc(C(=O)OC(C)C)c(Cl)cc2F)CCC1` registered a melting point of 146 to 149 °C.

In turn, `O=C1NC(=O)C(Cc2ccc(C(=O)CCCc3ccccc3)cc2)S1` (stereo not drawn) had a melting point of 120 to 122 °C.

Regarding `CN=C(Cl)c1ccc([N+](=O)[O-])cc1`, the melting point is 67 to 73 °C.

Molecule `O=C(c1ccc(Cl)nc1)N1Cc2cccn2Cc2ccccc21` came in with a melting point of 165 to 167 °C.

For the molecule `CC(=O)CC(O)c1ccc(-c2ccc(N3C[C@H](Cn4ccnn4)OC3=O)cc2F)cn1` (stereo partly drawn), the melting point was 130 to 135 °C.

As for `O=S(=O)(CCCl)C(c1ccccc1)S(=O)(=O)CCCl`, the melting point lay within 106 to 108 °C.

The molecule `COCc1cc(O)n2nc(SCc3ccccc3)nc2n1` yielded a melting point of 213 °C.

Take `O=C(Nc1ccccc1C(=O)O)C(=Cc1ccccc1)C(=O)Nc1ccccc1C(=O)O`: the melting point was 247 to 249 °C.

Molecule `CCC1SC(c2ccncc2)=C(C)NC1=O` (stereo not drawn) displayed a melting point of 121 to 123 °C.

`NC(=O)c1cnc2n(c1=O)CCC2` yielded a melting point of 293 °C.

`Fc1ccc(-c2cc(C(F)(F)F)n3ncc(-c4ccccn4)c3n2)cc1Cl` displayed a melting point of 197 °C.

As to `CCc1cccc2oc(C(=O)Nc3ccc(-c4ccc(S(=O)(=O)NC(C(=O)O)C(C)C)cc4)cc3)c(C)c12` (stereo not drawn), the melting point fell in the range of 239 to 241 °C.

Turning to `COC(=O)c1c(-c2ccc(F)cc2)c2cc(OCc3ccccc3)ccc2c(=O)n1CC(C)C`, the melting point is 118 to 119 °C.

`Cc1cc(Nc2nccc(-c3sc(-c4cccnc4)nc3C)n2)ccc1N1CCCCC1` showed a melting point of 200 to 201 °C.

Regarding `CCOC(=O)c1c(NCC(=O)c2ccccc2)c2c(Cl)cc(Cl)cc2n1C(=O)OC(C)(C)C`, the melting point lay in the range of 143 to 144 °C.

`Cc1cc(-c2cc(F)c(F)cc2-c2ccc(S(C)(=O)=O)cc2)ccc1F` returned a melting point of 167 to 168 °C.

As for `O=Cc1c(O)ccc2c1OCCO2`, the melting point was in the range of 62 to 63 °C.

The molecule `CCn1cnc2c(Nc3cccc(C(=O)O)c3)nc(N[C@H]3CC[C@H](O)CC3)nc21` showed a melting point of 317 °C.

Molecule `COc1ccccc1C1=C(C#N)C(c2ccccc2[N+](=O)[O-])c2c[nH]nc2N1` (stereo not drawn) yielded a melting point of 207 °C.

The molecule `C=CCNC(=O)[C@H]1N(C(=O)[C@@H](O)[C@H](Cc2ccccc2)NC(=O)c2cccc(O)c2C)CSC1(C)C` displayed a melting point of 173 to 175 °C.

`Cc1sc2c(=O)[nH]cnc2c1Br` returned a melting point of 320 to 322 °C.

`CN(CC(=O)OC(C)(C)C)c1nccc(-c2nc(=O)c3ccccc3s2)n1`: the melting point was 186 to 188 °C.

`Cc1ccc(C2c3c(C)c(-n4cc5cc6c(cc5c4)OCO6)c(C)c(C)c3OC2(C)C)cc1` (stereo not drawn) displayed a melting point of 236 to 242 °C.

On to `Cc1nc2c(N)nc3ccccc3c2n1CCCCNC(=O)c1ccccc1`, for which the melting point fell in the range of 164 to 170 °C.

Take `COC1CCN(S(=O)(=O)c2ccc(S(N)(=O)=O)c(Cl)c2)CC1`: the melting point was 165 to 167 °C.

In turn, `CCOC(=O)Nc1sc(C)c(C#N)c1S(=O)(=O)NC(=S)NC(C)C` came in with a melting point of 169 to 171 °C.

As to `COc1cc(CN2CCN(C(=O)c3ccc4c(c3)C(=O)C3(CC3)O4)CC2)cc(OC)c1OC`, the melting point was 196 to 198 °C.

The molecule `CC1C(=S)Nc2c(F)cc(F)cc21` (stereo not drawn) gave a melting point of 151 to 152 °C.

For `CC(C)c1c(C(=O)Nc2ccc(O)cc2)c(-c2ccccc2)c(-c2ccc(F)cc2)n1CC[C@@H]1C[C@@H](O)CC(=O)O1`, the melting point lay in the range of 130 to 133 °C.

Molecule `CN1CCN(C(=NNc2ccccc2Cl)c2ccccc2F)CC1` gave a melting point of 109 to 111 °C.

Molecule `CN(C)c1ccc(NC(=O)N(C[C@@H]2CCC[C@H](CN(CC(C)(C)C)C(=O)Nc3ccc(N(C)C)cc3)C2)CC(C)(C)C)cc1` registered a melting point of 171 to 173 °C.

`O=C(O)c1cn(-c2ccc(Cl)cc2)c2c(F)c(F)c(F)cc2c1=O`: the melting point was 117 to 118 °C.

As to `COc1ccc(C(=O)NCCc2cccc(OCc3ccccc3)c2)cc1OC`, the melting point was in the range of 82 to 84 °C.

(Values after a melting point compilation (Tetko et al.; mined from patent text by program, amines drawn as free bases though some values may be those of a salt).)
